Measured values: US20180071317A1, “USE OF AGENTS THAT ALTER THE PERITUMORAL ENVIRONMENT FOR THE TREATMENT OF CANCER” (SERVICIO ANDALUZ DE SALUD, priority 2011, published 2018)

Tests used:
[1] = tested on: fibroblasts (PHF) co-cultured with human glioma tumor cells (GAMG); assay: Marker expression (IHC) in PHF co-cultured with GAMG tumor cells; assay type: cell-based; settings: co-culture with GAMG; SP 1 μM + antagonist 1 μM; 48 h;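 also: percentage of PHF fibroblasts positive for each marker, cultured in fresh plasma from a healthy donor, six replicates, with fibroblasts cultured alone as reference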
Method: (§1) All cultures were maintained 48 hours, following which the same cells were included in paraffin blocks for subsequent analysis of the expression of different markers by immunohistochemistry (see Example 1). […] All experiments were carried out sixfold. Analyzed markers in fibroblast cells (stromal cells) were: TGF-α, TGF-β1, TGF-β2, TGF-β3, SPARC, MMP-3, MMP-7, MMP-9, MMP-11, MMP-13 and MMP-14.

[2] = tested on: fibroblasts (PHF) co-cultured with tumor cells, ovarian carcinoma (EFO-27); assay: Marker expression (IHC) in PHF co-cultured with EFO-27 tumor cells; assay type: cell-based, human; settings: co-culture with EFO-27; SP 1 μM + antagonist 1 μM; 48 h;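 also: values are the percentage of PHF fibroblasts positive for each marker, cultured in fresh plasma from a healthy human donor, each experiment run in six replicates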
Method: as §1

[3] = tested on: human primary fibroblasts (PHF); assay: Marker expression (immunohistochemistry) in human primary fibroblasts with SP alone or with NK1 antagonists; assay type: cell-based; settings: SP 1 μM + antagonist 1 μM; 48 h;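 also: primary human dermal fibroblasts, immunostained with rabbit polyclonal antibodies against each marker, value is percentage of stained cells among all cells counted in 20 fields at 400× per section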
Method: These PHF were obtained and purified from samples obtained from the dermis of the skin of healthy volunteers as described in De Bari et al (De Bari et al. 2001). Briefly, small pieces of skin dermis were digested in a solution of hyaluronidase (Sigma-Aldrich, USA) at a concentration of 1 mg/ml for 15 minutes at 37° C. and then treated with 6 mg/ml collagenase type IV (Invitrogen) for 2 hours at 37° C. Then, the cells were washed, resuspended in DMEM culture medium with high glucose (Dulbecco's Modified Eagle's Medium, Invitrogen) supplemented with 1% antibiotic-antimycotic (Invitrogen) and 1% pyruvate Sodium (Invitrogen), and seeded in culture dishes at a concentration of 10,000 cells per square centimeter. When the cells reached confluence, adherent cells were detached using 0.5% sterile trypsin (Invitrogen) and used between passages 3 and 9. For tests shown below, the PHF were plated in 24-well plates at a concentration of 25,000 cells per well.
After 48 hours of culture, cells were harvested and paraffin cell-blocks for immunohistochemical analysis were constructed, as previously explained in Example 1.
In immunohistochemical assays the expression of the following markers were studied: TGFα (SAB4502953), TGF1 (SAB4502954), TGFβ2 (SAB4502956), TGFβ3 (SAB4502957), SPARC (HPA002989), MMP-3 (HPA007875) MMP-7 (SAB4501894), MMP-9 (SAB4501896), MMP-11 (SAB4501898), MMP-13 (SAB4501900) and MMP-14 (SAB4501901) using specific antibodies against them. All antibodies used were rabbit polyclonal antibodies obtained from Sigma-Aldrich and were used at a concentration of 1/1000. All experiments were carried out sixfold.
On each of the six sections cell counts were performed in 20 high power fields (400×) through an Olympus microscope (model CX31) to assess the immunostaining. On each of the fields total cell number and number of cells displaying immunostaining were counted, being then the percentage of cells displaying said immunostaining.

[4] = tested on: fibroblasts (PHF) co-cultured with tumor cells of human breast carcinoma (MCF-7); assay: Marker expression (IHC) in PHF co-cultured with MCF-7 tumor cells; assay type: cell-based; settings: co-culture with MCF-7; SP 1 μM + antagonist 1 μM; 48 h;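 also: value is the percentage of fibroblasts positive for each marker, with fibroblasts cultured alone as reference, grown in fresh plasma from a healthy donor, six replicates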
Method: as §1

[5] = tested on: fibroblast cells in co-culture with cells isolated from primary human tumors; assay: Marker expression (IHC) in fibroblasts co-cultured with primary human tumor cells (colon, pancreatic, lung carcinoma, glioma, multiple myeloma); assay type: cell-based
Method: To check that the interaction of the human primary tumor cells with stromal cells, [human fibroblasts,] stimulates the secretion of substances of importance for survival and tumor progression, co-cultures were performed using stromal cells with human fibroblast-tumor cells obtained directly from primary human tumors.
On this occasion, in order to identify, using immunohistochemical techniques, the secretion of substances of importance for the survival and progression of tumors, the following antibodies were used: TGF-α (SAB4502953), TGF-β1 (SAB4502954), TGF-β2 (SAB4502956), TGF-β3 (SAB4502957), SPARC (HPA002989), MMP-3 (HPA007875), MMP-7 (SAB4501894), MMP-9 (SAB4501896), MMP-11 (SAB4501898) MMP-13 (SAB4501900) and MMP-14 (SAB4501901) using specific antibodies against them. All antibodies used were rabbit polyclonal antibodies obtained from Sigma-Aldrich and were used at a concentration of 1/1000 to achieve these immunohistochemical studies. All experiments were carried out sixfold.

[6] = tested on: fibroblasts (PHF) co-cultured with tumor cells of human pancreatic adenocarcinoma (CAPAN-1); assay: Marker expression (IHC) in PHF co-cultured with CAPAN-1 tumor cells; assay type: cell-based; settings: co-culture with CAPAN-1; SP 1 μM + antagonist 1 μM; 48 h;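 also: cultures grown in fresh plasma from a healthy human donor, run in six replicates, value is percent of fibroblasts positive for each marker, compared with fibroblasts cultured alone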
Method: (§2) All cultures were maintained 48 hours, following which the same cells were included in paraffin blocks for subsequent analysis of the expression of different markers by immunohistochemistry (see Example 1). The primary antibodies used to perform immunohistochemical assays and their concentration are detailed in Example 2. All experiments were carried out sixfold. Analyzed markers in fibroblast cells (stromal cells) were: TGF-α, TGF-β1, TGF-β2, TGF-β3, SPARC, MMP-3, MMP-7, MMP-9, MMP-11, MMP-13 and MMP-14.

[7] = tested on: fibroblasts (PHF) co-cultured with tumor cells of human cervix carcinoma (KB); assay: Marker expression (IHC) in PHF co-cultured with KB tumor cells; assay type: cell-based; settings: co-culture with KB; SP 1 μM + antagonist 1 μM; 48 h;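 also: percentage of PHF fibroblasts showing expression of each marker, cultured in fresh blood plasma from a healthy human donor, six replicates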
Method: as §1

[8] = tested on: fibroblasts (PHF) cells co-cultured with human T lymphoma tumor (DERL-7); assay: Marker expression (IHC) in PHF co-cultured with DERL-7 tumor cells; assay type: cell-based; settings: PHF co-cultured with DERL-7 + SP + NK1 antagonist
Method: as §2

[9] = tested on: fibroblasts (PHF) co-cultured with tumor cells of lung carcinoma (A-427); assay: Marker expression (IHC) in PHF co-cultured with A-427 tumor cells; assay type: cell-based, human; settings: co-culture with A-427 lung carcinoma; SP 1 μM + antagonist 1 μM; 48 h;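 also: cultures grown in human blood plasma from a healthy donor, value is the percentage of fibroblasts positive for each marker, six replicates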
Method: as §1

[10] = Primary tumor cells (colon carcinoma) co-cultured + fibroblast + SP (1 μM) + NK1 antagonist 1 μM
[11] = co-culture with cells isolated from glioma, SP 1 μM + antagonist 1 μM
[12] = co-culture with cells isolated from lung cancer, SP 1 μM + antagonist 1 μM
[13] = co-culture with cells isolated from multiple myeloma, SP 1 μM + antagonist 1 μM
[14] = co-culture with cells isolated from pancreatic carcinoma, SP 1 μM + antagonist 1 μM

Cc1cc(F)ccc1[C@H]1CNCCN1C(=O)N(C)[C@H](C)c1cc(C(F)(F)F)cc(C(F)(F)F)c1 [Vestipitant]
0%: PHF cells expressing MMP-3 [1] | PHF cells expressing MMP-7 [1] | PHF cells expressing MMP-9 [1] | PHF cells expressing MMP-11 [1] | PHF cells expressing MMP-13 [1] | PHF cells expressing MMP-14 [1] | PHF cells expressing SPARC [1] | PHF cells expressing TGF-α [1] | PHF cells expressing TGF-β1 [1] | PHF cells expressing TGF-β2 [1] | PHF cells expressing TGF-β3 [1] | PHF cells expressing MMP-3 [2] | PHF cells expressing MMP-7 [2] | PHF cells expressing MMP-9 [2] | PHF cells expressing MMP-11 [2] | PHF cells expressing MMP-13 [2] | PHF cells expressing MMP-14 [2] | PHF cells expressing SPARC [2] | PHF cells expressing TGF-α [2] | PHF cells expressing TGF-β1 [2] | PHF cells expressing TGF-β2 [2] | PHF cells expressing TGF-β3 [2] | PHF cells expressing MMP-3 [3] | PHF cells expressing MMP-7 [3] | PHF cells expressing MMP-9 [3] | PHF cells expressing MMP-11 [3] | PHF cells expressing MMP-13 [3] | PHF cells expressing MMP-14 [3] | PHF cells expressing SPARC [3] | PHF cells expressing TGFα [3] | PHF cells expressing TGFβ 1 [3] | PHF cells expressing TGFβ 2 [3] | PHF cells expressing TGFβ 3 [3] | PHF cells expressing MMP-3 [4] | PHF cells expressing MMP-7 [4] | PHF cells expressing MMP-9 [4] | PHF cells expressing MMP-11 [4] | PHF cells expressing MMP-13 [4] | PHF cells expressing MMP-14 [4] | PHF cells expressing SPARC [4] | PHF cells expressing TGF-α [4] | PHF cells expressing TGF-β1 [4] | PHF cells expressing TGF-β2 [4] | PHF cells expressing TGF-β3 [4] | Percentage of fibroblast cells which expressed MMP-3 [5, 10] | Percentage of fibroblast cells which expressed MMP-7 [5, 10] | Percentage of fibroblast cells which expressed MMP-9 [5, 10] | Percentage of fibroblast cells which expressed MMP-11 [5, 10] | Percentage of fibroblast cells which expressed MMP-13 [5, 10] | Percentage of fibroblast cells which expressed MMP-14 [5, 10] | Percentage of fibroblast cells which expressed SPARC [5, 10] | Percentage of fibroblast cells which expressed TGFα [5, 10] | Percentage of fibroblast cells which expressed TGFβ1 [5, 10] | Percentage of fibroblast cells which expressed TGFβ2 [5, 10] | Percentage of fibroblast cells which expressed TGFβ3 [5, 10] | Percentage of fibroblast cells which expressed MMP-3 [5, 11] | Percentage of fibroblast cells which expressed MMP-7 [5, 11] | Percentage of fibroblast cells which expressed MMP-9 [5, 11] | Percentage of fibroblast cells which expressed MMP-11 [5, 11] | Percentage of fibroblast cells which expressed MMP-13 [5, 11] | Percentage of fibroblast cells which expressed MMP-14 [5, 11] | Percentage of fibroblast cells which expressed SPARC [5, 11] | Percentage of fibroblast cells which expressed TGFα [5, 11] | Percentage of fibroblast cells which expressed TGFβ1 [5, 11] | Percentage of fibroblast cells which expressed TGFβ2 [5, 11] | Percentage of fibroblast cells which expressed TGFβ3 [5, 11] | Percentage of fibroblast cells which expressed MMP-3 [5, 12] | Percentage of fibroblast cells which expressed MMP-7 [5, 12] | Percentage of fibroblast cells which expressed MMP-9 [5, 12] | Percentage of fibroblast cells which expressed MMP-11 [5, 12] | Percentage of fibroblast cells which expressed MMP-13 [5, 12] | Percentage of fibroblast cells which expressed MMP-14 [5, 12] | Percentage of fibroblast cells which expressed SPARC [5, 12] | Percentage of fibroblast cells which expressed TGFα [5, 12] | Percentage of fibroblast cells which expressed TGFβ1 [5, 12] | Percentage of fibroblast cells which expressed TGFβ2 [5, 12] | Percentage of fibroblast cells which expressed TGFβ3 [5, 12] | Percentage of fibroblast cells which expressed MMP-3 [5, 13] | Percentage of fibroblast cells which expressed MMP-7 [5, 13] | Percentage of fibroblast cells which expressed MMP-9 [5, 13] | Percentage of fibroblast cells which expressed MMP-11 [5, 13] | Percentage of fibroblast cells which expressed MMP-13 [5, 13] | Percentage of fibroblast cells which expressed MMP-14 [5, 13] | Percentage of fibroblast cells which expressed SPARC [5, 13] | Percentage of fibroblast cells which expressed TGFα [5, 13] | Percentage of fibroblast cells which expressed TGFβ1 [5, 13] | Percentage of fibroblast cells which expressed TGFβ2 [5, 13] | Percentage of fibroblast cells which expressed TGFβ3 [5, 13] | Percentage of fibroblast cells which expressed MMP-3 [5, 14] | Percentage of fibroblast cells which expressed MMP-7 [5, 14] | Percentage of fibroblast cells which expressed MMP-9 [5, 14] | Percentage of fibroblast cells which expressed MMP-11 [5, 14] | Percentage of fibroblast cells which expressed MMP-13 [5, 14] | Percentage of fibroblast cells which expressed MMP-14 [5, 14] | Percentage of fibroblast cells which expressed SPARC [5, 14] | Percentage of fibroblast cells which expressed TGFα [5, 14] | Percentage of fibroblast cells which expressed TGFβ1 [5, 14] | Percentage of fibroblast cells which expressed TGFβ2 [5, 14] | Percentage of fibroblast cells which expressed TGFβ3 [5, 14] | PHF cells expressing MMP-3 [6] | PHF cells expressing MMP-7 [6] | PHF cells expressing MMP-9 [6] | PHF cells expressing MMP-11 [6] | PHF cells expressing MMP-13 [6] | PHF cells expressing MMP-14 [6] | PHF cells expressing SPARC [6] | PHF cells expressing TGF-α [6] | PHF cells expressing TGF-β1 [6] | PHF cells expressing TGF-β2 [6] | PHF cells expressing TGF-β3 [6] | PHF cells expressing MMP-3 [7] | PHF cells expressing MMP-7 [7] | PHF cells expressing MMP-9 [7] | PHF cells expressing MMP-11 [7] | PHF cells expressing MMP-13 [7] | PHF cells expressing MMP-14 [7] | PHF cells expressing SPARC [7] | PHF cells expressing TGF-α [7] | PHF cells expressing TGF-β1 [7] | PHF cells expressing TGF-β2 [7] | PHF cells expressing TGF-β3 [7] | cells expressing MMP-3 [8] | cells expressing MMP-7 [8] | cells expressing MMP-9 [8] | cells expressing MMP-11 [8] | cells expressing MMP-13 [8] | cells expressing MMP-14 [8] | cells expressing SPARC [8] | cells expressing TGF-α [8] | cells expressing TGF-β1 [8] | cells expressing TGF-β2 [8] | cells expressing TGF-β3 [8] | PHF cells expressing MMP-3 [9] | PHF cells expressing MMP-7 [9] | PHF cells expressing MMP-9 [9] | PHF cells expressing MMP-11 [9] | PHF cells expressing MMP-13 [9] | PHF cells expressing MMP-14 [9] | PHF cells expressing SPARC [9] | PHF cells expressing TGF-α [9] | PHF cells expressing TGF-β1 [9] | PHF cells expressing TGF-β2 [9] | PHF cells expressing TGF-β3 [9]
